Laboratory results: US20260028332A1, “POLYMORPHIC FORM OF GLP-1R AGONIST, PREPARATION METHOD THEREFOR AND USE THEREOF” (MINDRANK THERAPEUTICS (SUZHOU) NEW DRUG RESEARCH AND …, priority 2022, published 2026)
Values after ≈ are worked out from the molar mass of the structure shown.

Legend:
Assay type in all cases: physicochemical
[1] = Hygroscopic behavior test by dynamic vapor sorption (DVS); conditions: for solid form change after DVS / hygroscopicity / Sample weight change at 80% RH (%): 25° C.; for solid form change after DVS: 0-90% RH; for hygroscopicity: 0-90% RH adsorption curve, at 80% RH; for Whether the crystal form is changed: after DVS test at 25° C.
Description: The experimental method for characterizing an acid salt or a base salt of compound III by dynamic vapor sorption (DVS) was as follows: A small amount of a powder of a polymorph of compound III was taken and placed into a precise sample tray that matches the instrument. After the sample was loaded, the sample tray was sent into the instrument for analysis. In the present disclosure, the instrument model used in the dynamic vapor sorption analysis was Intrinsic PLUS; the experimental parameter was set as follows: a constant temperature of 25° C. was set; the mass percent change rate per unit time (dm/dt)=0.02%/min was used as a criterion for determining that a balance is achieved; the program humidity change cycle was set as follows: the initial relative humidity was 0%, and the endpoint relative humidity was 90%.
The DVS plot of the amorphous solid of the compound is shown in FIG. 67, and the DVS plot of crystal form D of the compound is shown in FIG. 68 The results are shown in the table below
The inventors assessed the stability risk of samples under varying humidity at 25° C. using the dynamic vapor sorption method and conducted the DVS test on the representative crystal form 2A of compound II to evaluate the hygroscopicity of the crystal form of the compound.

[2] = Equilibrium solubility study of polymorph in biological media (supernatant concentration; residual solid by XRPD); conditions: for Whether the crystal form is changed: residual solid by XRPD after 24 h at 37±2° C.; for solubility thermodynamic at 24 h: 37 °C, thermodynamic from solid, suspension ~10 mg/mL, 37±2° C.
[3] = as above; conditions: for crystal form change of the solid in FaSSGF: ~10 mg/mL suspension; for crystal form change of the solid in FaSSGF / crystal form change of the solid in other media: solid tested by XRPD; for stability in biological media compared with the amorphous solid: H2O; for crystal form change of the solid in other media: media other than FaSSGF (H2O, FaSSIF, FeSSIF); for Whether the crystal form is changed: residual solid by XRPD after 24 h at 37±2° C.
Description: (§1) In the tests, the solids were suspended in corresponding buffers to formulate suspensions (˜10 mg/mL), and the suspensions were mixed at 37±2° C. After 24 h, samples of the suspensions were taken. The supernatant was filtered, and the concentration was determined. The solid was tested by XRPD.
as §1, with “Crystal form 2A of compound II was tested for its equilibrium solubility in water (H2O), fasted state simulated gastric fluid (FaSSGF), fasted state simulated intestinal fluid (FaSSIF), and fed state simulated intestinal fluid (FeSSIF). In” for “In”

[4] = Solid state stability study of polymorph (purity by HPLC and crystal form change after 7 days storage); conditions: for Purity (%) / Initial purity (%): HPLC; for Initial purity (%): before storage
[5] = as above; conditions: for purity change, long-term storage condition: 25° C./60% RH; for purity change, long-term storage condition / purity change, accelerated condition / purity change, high-temperature condition: 7 days; for purity change, high-temperature condition: 60° C., RH<30%; for crystal form change after storage: 7 days in long-term storage, accelerated and high-temperature conditions; for overall solid state stability: 7 days storage study, conclusion
Description: Crystal form 2A of compound II was preserved in long-term storage (25° C./60% RH), accelerated (40° C./75% RH), and high-temperature (60° C., RH<30%) conditions for 7 days, and tested for purity and crystal form change by HPLC, so as to examine the stability of the solids.

[6] = FaSSGF, FaSSIF, FeSSIF, 37±2° C., 24 h
[7] = 25° C./60% RH, 7 days (long-term storage), compound I
[8] = 40° C./75% RH, 7 days (accelerated), compound I
[9] = 60° C., 7 days (high-temperature, RH<30%), compound I
[10] = 25° C./60% RH, 7 days (long-term storage), compound II
[11] = 60° C., 7 days (high-temperature, RH<30%), compound II

Row | solid form change after DVS [1] | hygroscopicity [1] | hygroscopicity ([1]; DVS, compound I) | Sample weight change at 80% RH (%) ([1]; DVS, compound I) | Whether the crystal form is changed ([1]; compound I) | Whether the crystal form is changed ([2]; H2O, polymorph of compound I) | crystal form change of the solid in FaSSGF ([3]; FaSSGF, 37±2° C., 24 h) | stability in biological media compared with the amorphous solid [3, 6] | crystal form change of the solid in other media ([3]; 37±2° C., 24 h) | Purity (%) [4, 7] [%] | Crystal form change [4, 7] | Purity (%) [4, 8] [%] | Crystal form change [4, 8] | Purity (%) [4, 9] [%] | Crystal form change [4, 9] | Initial purity (%) ([4]; compound I) | purity change, long-term storage condition ([5]; HPLC) | purity change, accelerated condition ([5]; 40° C./75% RH, HPLC) | purity change, high-temperature condition ([5]; HPLC) | Structure (SMILES) | crystal form change after storage [5] | further results
1 | no solid form changes were observed | slightly hygroscopic | Slightly hygroscopic | 1.08 | No | No | converted into a hydrochloride salt | significantly superior | no crystal form change was observed | 99.10 | No | 98.98 | No | 98.61 | No | 99.15 | no significant purity changes | slightly reduced purities | slightly reduced purities | O=C(O)c1ccc2nc(CN3CCC(Oc4cccc(COc5ccc(Cl)cc5F)n4)CC3)n(C[C@@H]3CCO3)c2c1 [crystal form D of compound I, (S)-2-((4-((6-((4-chloro-2-fluorophenoxy)methyl)pyridin-2-yl)oxy)piperidin-I-yl)methyl)-1-(oxetan-2-ylmethyl)-1H-benzo[d]imidazole-6-carboxylic acid] | no significant crystal form changes | Whether the crystal form is changed ([2]; FaSSIF, polymorph of compound I): No; Whether the crystal form is changed ([2]; FeSSIF, polymorph of compound I): No; solubility in the FaSSIF system ([3]; FaSSIF, 37±2° C., 24 h, compared with amorphous solid): significantly improved solubility; overall solid state stability [5]: significantly superior
2 | no solid form changes were observed | slightly hygroscopic | – | – | – | – | converted into a hydrochloride salt | significantly superior | no crystal form changes | – | – | – | – | – | – | – | no significant purity changes | no significant purity changes | no significant purity changes | N#Cc1ccc(OCc2cccc(OC3CCN(Cc4nc5ccc(C(=O)O)cc5n4C[C@@H]4CCO4)CC3)n2)c(F)c1 [crystal form 2A of compound II, (S)-2-((4-((6-((4-cyano-2-fluorophenoxy)methyl)pyridin-2-yl)oxy)piperidin-1-yl)methyl)-1-(oxetan-2-ylmethyl)-1H-benzo[d]imidazole-6-carboxylic acid] | no significant purity changes or significant crystal form changes | hygroscopicity ([1]; DVS, compound II): Slightly hygroscopic; Sample weight change at 80% RH (%) ([1]; DVS, compound II): 0.71%; Whether the crystal form is changed ([1]; compound II): No; Whether the crystal form is changed ([2]; H2O, polymorph of compound II): No; solubility thermodynamic at 24 h ([2]; fasted state simulated intestinal fluid (FaSSIF), FaSSIF, polymorph of compound II): 40 µg/mL (≈ 70 µM); solubility thermodynamic at 24 h ([2]; fed state simulated intestinal fluid (FeSSIF), FeSSIF, polymorph of compound II): 190 µg/mL (≈ 332 µM); solubility thermodynamic at 24 h ([2]; water, H2O, polymorph of compound II): 90 µg/mL (≈ 157 µM); Whether the crystal form is changed ([3]; FaSSIF, polymorph of compound II): No; Whether the crystal form is changed ([3]; FeSSIF, polymorph of compound II): No; solubility thermodynamic at 24 h ([3]; fasted state simulated gastric fluid (FaSSGF), 37 °C, fassgf or other biorelevant, thermodynamic from solid, FaSSGF, suspension ~10 mg/mL, 37±2° C., 24 h, polymorph of compound II): 180 µg/mL (≈ 315 µM); Purity (%) [4, 10]: 97.65%; Crystal form change [4, 10]: No; Purity (%) [4, 11]: 97.63%; Crystal form change [4, 11]: No; Initial purity (%) ([4]; compound II): 97.71%; Purity (%) ([5]; 40° C./75% RH, 7 days (accelerated), HPLC, compound II): 97.38%; Crystal form change ([5]; 40° C./75% RH, 7 days (accelerated), compound II): No; overall solid state stability [5]: good stability
3 | no solid form changes were observed | slightly hygroscopic | Slightly hygroscopic | 0.90 | No | No | – | – | – | 98.94 | No | 95.86 | No | 89.15 | No | 98.98 | no significant purity changes | significant degradation | significant degradation | O=C(O)c1ccc2nc(CN3CCC(Oc4cccc(COc5ccc(Cl)cc5F)n4)CC3)n(C[C@@H]3CCO3)c2c1 [amorphous solid of compound I, (S)-2-((4-((6-((4-chloro-2-fluorophenoxy)methyl)pyridin-2-yl)oxy)piperidin-1-yl)methyl)-1-(oxetan-2-ylmethyl)-1/-benzo[d]imidazole-6-carboxylic acid] | – | –
